Where “and” joins values, the source holds several entries; their conditions need not be identical. Equal entries are not always repeated.
Experiments:
[1] = tested on: INaL over INaP; conditions: cited from earlier work
[2] = tested on: late Na+ current (INaL); assay: INaL dissected by drug under action potential voltage clamp (APVC) in isolated ventricular myocytes; assay type: cell-based, canine; conditions: cycle length 700 ms, 37 °C, 1 µM GS967, 20 µM mexiletine, 10 µM quinidine, mean ± SEM
Description: (§1) Single canine ventricular myocytes were isolated using a segment perfusion technique, as previously described. Briefly, the LAD coronary artery was cannulated and used for supplying solutions required for the dissociation of the individual cells with minimal injury. After dissection, the tissue was first perfused with a nominally Ca^2+-free solution (Minimum Essential Medium Eagle, Joklik Modification, Sigma-Aldrich Co., St. Louis, MO, USA) for 5 min in order to reduce the Ca^2+ load and also to promote the uncoupling of cell-to-cell junctions. Following this, the perfusate was supplemented with 1 mg/mL collagenase (Type II, final activity of 224 U/mL, Worthington Biochemical Co., Lakewood, NJ, USA) and 0.2% bovine serum albumin (Fraction V., Sigma) in the presence of 50 µM Ca^2+. This step was applied for 30 min to digest the collagen fibers in the extracellular matrix, resulting in the release of individual cells. […] The cells were kept at 15 °C before use, allowing normalization of their intracellular ionic composition. All chemicals applied in these experiments were purchased from Sigma-Aldrich Co. (St. Louis, MO, USA).
(§2) The cells, studied by an inverted microscope, were continuously superfused with a modified Tyrode at a rate of 1–2 mL/min. The modified Tyrode solution contained (in mM): NaCl: 121; KCl: 4; CaCl2: 1.3; MgCl2: 1; HEPES: 10; NaHCO3: 25; glucose: 10; pH: 7.35; osmolarity: 300 ± 3 mOsm. The temperature of this perfusate was set to 37 °C with a temperature controller (Cell MicroControls, Norfolk, VA, USA). Electrical signals were generated, amplified and recorded using a MultiClamp 700A or 700B amplifier under the control of pClamp 10 software (Molecular Devices, Sunnyvale, CA, USA) after analogue-to-digital conversion (Digidata 1440A or 1332, Molecular Devices). The electrodes were manufactured from borosilicate glass. The tip resistance of these micropipettes ranged between 2 and 3 MΩ when filled with pipette solution. Ion currents were recorded under whole-cell voltage clamp conditions. The series resistance was typically 4–8 MΩ. The measurement was discarded when the series resistance changed substantially during the experimental period.
APVC experiments were performed according to the methods described previously. This technique allows for the visualization of various ion currents flowing during an actual ventricular AP by using a selective inhibitor of the respective ion current. In these experiments, therefore, a midmyocardial canine ventricular AP was applied as a command signal. The current traces were continuously recorded before and after a 5 min superfusion with the applied Na^+ channel inhibitor. The drug-sensitive current was obtained by subtracting the post-drug trace from the reference pre-drug trace. When measuring INaL, the external solution was supplemented with 1 µM nisoldipine, 1 µM E4031 and 100 µM chromanol 293B, in order to eliminate contaminations by Ca^2+ and K^+ currents. The pipette solution contained (in mM): K-aspartate, 120; KCl, 30; MgATP, 3; HEPES, 10; Na2-phosphocreatine, 3; EGTA, 0.01; cAMP, 0.002; KOH, 10; at pH = 7.3; osmolarity of 285 mOsm. The amplitude of INaL was measured at 50% duration of the APD90 value of the command AP. The initial 20 ms period following the AP upstroke was excluded from evaluation when determining the current integral in order to eliminate the contribution of INaP. A total of 20 consecutive current traces were averaged and analyzed in each experiment to reduce the noise and the trace-to-trace fluctuations of the AP configuration. Ion currents were normalized to cell capacitance, determined by applying a short (15 ms) hyperpolarizing pulse from +10 mV to −10 mV.

[3] = tested on: late Na+ current (INaL); assay: INaL under conventional voltage clamp (2 s pulses to −20 mV from −120 mV) in isolated ventricular myocytes; assay type: cell-based, canine; conditions: for inhibition of INaL current integral: 1 µM GS967, 20 µM mexiletine, 10 µM quinidine; for inhibition of INaL density: at 50 ms, 1 µM GS967 (n = 6), 20 µM mexiletine (n = 5), 10 µM quinidine (n = 6); for INaL current integral (charge carried), post-drug: initial 20 ms excluded, 1 µM GS967 (pre-drug −69.1 ± 7.9), 20 µM mexiletine (pre-drug −68.6 ± 6.2), 10 µM quinidine (pre-drug −68.2 ± 11.7); for INaL density at 50 ms after start of pulse, post-drug: −20 mV from −120 mV, 1 µM GS967 (pre-drug −0.313 ± 0.035), 20 µM mexiletine (pre-drug −0.337 ± 0.035), 10 µM quinidine (pre-drug −0.333 ± 0.043)
Description: as §1, §2
Rectangular command pulses were applied in conventional voltage clamp experiments to study the effects on INaL at stable test potentials, as described previously. The cells were perfused with HEPES-buffered Tyrode solution containing (in mM): NaCl, 144; NaH2PO4, 0.4; KCl, 4.0; CaCl2, 1.8; MgSO4, 0.53; glucose, 5.5; HEPES, 5.0; at pH = 7.4. This solution contained 1 µM nisoldipine, 0.5 µM HMR-1556 and 0.1 µM dofetilide in order to block the Ca^2+ and K^+ currents. The pipette solution contained (in mM): CsCl, 125; TEACl, 20; MgATP, 5; EGTA, 10; HEPES, 10; at pH = 7.2. Test pulses of 2 s duration were clamped to −20 mV from the holding potential of −120 mV. The total amount of INaL was determined by pharmacological subtraction using a final superfusion with 20 µM TTX. The amplitude of INaL was determined at 50 ms following the start of the pulse. When measuring the charge carried by INaL (integral), the initial 20 ms of the current was excluded from evaluation to minimize the contamination with INaP.

[4] = tested on: peak Na+ current (INaP) estimated as V+max; assay: Steady-state V+max of action potential upstroke (indicator of INaP), right ventricular papillary muscle, sharp microelectrode; assay type: cell-based, canine; conditions: 1 µM GS967, 20 µM mexiletine, 10 µM quinidine; for V+max block: cycle length 700 ms; for cycle lengths at which V+max was significantly reduced: cycle lengths 0.3-5 s tested
Description: (§3) Right ventricular papillary muscles were applied for AP recordings using the conventional sharp microelectrode technique, as described previously. Membrane potential changes were recorded at 37 °C using sharp microelectrodes filled with 3 M KCl (tip resistance 10–20 MΩ) and connected to the input of an amplifier (MDE GmbH, Heidelberg, Germany). The preparations were stimulated with current pulses having durations of 1 ms and amplitudes of 200% diastolic threshold using a pair of platinum electrodes. Before starting the experiment, the preparations were paced at a cycle length of 1 s for at least 60 min allowing equilibration. After this period, the cycle length was sequentially changed between 0.3 and 5 s and the 25th AP was recorded at each cycle length. […] APs were sampled at 100 kHz with an ADA 3300 data acquisition board (Real Time Devices Inc., State Collage, PA, USA) and stored for later analysis.

[5] = tested on: peak Na+ current (INaP) estimated as V+max; assay: Offset kinetics: restitution of V+max with extra stimuli after 1 Hz trains; assay type: cell-based, canine; conditions: monoexponential fit, basic cycle length 1 s; 1 µM GS967, 20 µM mexiletine
Description: as §3

[6] = tested on: peak Na+ current (INaP) estimated as V+max; assay: Onset kinetics of V+max block during 2.5 Hz train after 1 min rest; assay type: cell-based, canine; conditions: initial 40 APs, 1 µM GS967, 20 µM mexiletine, 10 µM quinidine
Description: as §3
The onset kinetics of drug action on V^+max were determined by stimulating the preparation at a short cycle length of 0.4 s following a 1 min period of rest and the initial 40 APs were recorded. The V^+max values of the consecutive APs were plotted as a function of the number of the AP within the train. The onset rate constant was determined by fitting the consecutive V^+max values to a monoexponential function.

[7] = tested on: Nav1.8; conditions: stated in discussion, no reference given; cited from earlier work
[8] = tested on: Nav2.1; conditions: stated in discussion, no reference given; cited from earlier work
[9] = tested on: Nav1.1; set-up: method as in PMID 31730442; conditions: cited from earlier work
[10] = tested on: Nav1.5; set-up: method as in PMID 27136942, PMID 32938719; conditions: cited from earlier work

For COc1ccccc1OCC(O)CN1CCN(CC(=O)Nc2c(C)cccc2C)CC1 (stereo not drawn) [ranolazine], the “selectivity for INaL over INaP” value [1] is given as 38 fold.

In the case of Cc1cccc(C)c1OCC(C)N (stereo not drawn) [mexiletine], the “drug-sensitive INaL current density measured at 50% duration of APD90 of the command AP” value [2] is reported as −0.375 ± 0.07 A/F, the “drug-sensitive INaL current integral (initial 20 ms excluded)” value (“drug-sensitive INaL current integral” for short) [2] is reported as −65.2 ± 11.5 mC/F and the “inhibition of INaL current integral” value [3] is reported as 46.1%. For the same compound, the “inhibition of INaL density” value [3] was 41.9 ± 3.7%, the “INaL current integral (charge carried), post-drug” value (shortened to “INaL current integral … post-drug”) [3] was −37.0 ± 4.7 mC/F and the “INaL density at 50 ms after start of pulse, post-drug” value (shortened to “INaL density at 50 ms after start”) [3] was −0.197 ± 0.026 A/F. For the same compound, the “V+max block” value [4] was 11.4%, the “cycle lengths at which V+max was significantly reduced” value [4] was less than 700 ms and the “offset time constant (recovery of V+max)” value [5] was 456 ± 284 ms. The “onset rate constant of V+max block” value [6] was 3.4 ± 0.4 AP.

In the case of O=C(NCC1CCCCN1)c1cc(OCC(F)(F)F)ccc1OCC(F)(F)F (stereo not drawn) [flecainide], the “selectivity for INaL over INaP” value [1] is given as 3 fold.

In the case of C=C[C@H]1C[N@@]2CC[C@H]1C[C@@H]2[C@@H](O)c1ccnc2ccc(OC)cc12 [quinidine], the “drug-sensitive INaL current density measured at 50% duration of APD90 of the command AP” value [2] is reported as −0.377 ± 0.06 A/F, the “drug-sensitive INaL current integral” value [2] is reported as −61.2 ± 8.8 mC/F and the “inhibition of INaL current integral” value [3] is reported as 37.1%. The “inhibition of INaL density” value [3] was 43.3 ± 2.2%, the “INaL current integral … post-drug” value [3] was −42.9 ± 9.2 mC/F and the “INaL density at 50 ms after start” value [3] was −0.186 ± 0.02 A/F.

In the case of CCCCc1oc2ccccc2c1C(=O)c1cc(I)c(OCCN(CC)CC)c(I)c1 [amiodarone], the “selectivity for INaL over INaP” value [1] is listed as 13 fold.

For FC(F)(F)Oc1ccc(-c2ccc3nnc(C(F)(F)F)n3c2)cc1 [GS967], the “drug-sensitive INaL current density measured at 50% duration of APD90 of the command AP” value [2] was −0.37 ± 0.07 A/F, the “drug-sensitive INaL current integral” value [2] was −56.7 ± 9.1 mC/F and the “inhibition of INaL current integral” value [3] was 79.0%. For the same compound, the “inhibition of INaL density” value [3] was 80.4 ± 2.2%, the “INaL current integral … post-drug” value [3] was −15.4 ± 3.9 mC/F and the “INaL density at 50 ms after start” value [3] was −0.062 ± 0.01 A/F. For the same compound, the “V+max block” value [4] was 2.3%, the “cycle lengths at which V+max was significantly reduced” value [4] was less than 500 ms and the “offset time constant (recovery of V+max)” value [5] was 110 ± 6 ms. For the same compound, the “onset rate constant of V+max block” value [6] was 6.4 ± 0.9 AP and 5.3±0.8 AP, the “inhibition of Nav1.8” value [7] was “does not inhibit” and the “inhibition of Nav2.1” value [8] was “does not inhibit”. The “sensitivity of neuronal Nav1.1” value [9] was “sensitive” and the “block of cardiac Nav1.5 channel isoform” value [10] was “strongly block”.

Reference: paper PMC10525890, “Selective Inhibition of Cardiac Late Na^+ Current Is Based on Fast Offset Kinetics of the Inhibitor” (Biomedicines, 2023)
